Measurements published in patent US7060293B1, “Powder-layered oral dosage forms” (Purdue Pharma, priority 1994, dated 2006).
Structures can show the parent of a compound that is named as a salt.

Assay: not given
Conditions: entries without asterisk (not marked as performed at PRC); cited from earlier work

Question: With “Doxycycline Metaphosphate Sodium Complex” as the molecule, how does the “Tapped Bulk Densities” value read?
Answer: 0.49 g/mL

Question: For `CCN(CC)CCNC(=O)c1cc(Cl)c(N)cc1OC` [Metoclopramide HCL], which “Tapped Bulk Densities” value is on record?
Answer: 0.5 g/mL

Assay: Bulk density (poured and tapped) of drug powders and processing aid
Assay type: physicochemical
Conditions: entries with asterisk: Bulk Densities performed at PRC

Question: Which “Tapped Bulk Densities” value does the source give for `COc1cccc(C2(O)CCCCC2CN(C)C)c1` (stereo not shown) [Tramadol HCL] here?
Answer: 0.42 g/mL

Question: Which “Tapped Bulk Densities” value does the source give for `Cn1c(=O)c2[nH]cnc2n(C)c1=O` [Theophylline Anhydrous] here?
Answer: 0.44 g/mL

Question: Which “Tapped Bulk Densities” value does the source give for `O=C1O[C@H]([C@@H](O)CO)C([O-])=C1O.[Na+]` [Sodium Ascorbate USP, Sodium Ascorbate] here?
Answer: 0.66 g/mL

Question: With `O=C(O)Cc1ccccc1Nc1c(Cl)cccc1Cl` [Diclofenac Sodium] as the molecule, how does the “Tapped Bulk Densities” value read?
Answer: 0.31 g/mL

Question: For `Cn1c(=O)c2[nH]cnc2n(C)c1=O` [Aminophylline USP, Aminophylline], which “Tapped Bulk Densities” value is on record?
Answer: 0.62 g/mL

Same assay, conditions: powder used in the examples

Question: With `COc1cccc(C2(O)CCCCC2CN(C)C)c1` (stereo not shown) [Tramadol HCL] as the molecule, how does the bulk density read?
Answer: about 0.42 g/ml

Question: For `CCN(CC)CCNC(=O)c1cc(Cl)c(N)cc1OC` [Metoclopramide HCL], which bulk density is on record?
Answer: about 0.5 g/ml

Question: With `O.OC[C@H]1O[C@@H](O[C@H]2[C@H](O)[C@@H](O)[C@@H](O)O[C@@H]2CO)[C@H](O)[C@@H](O)[C@H]1O` [lactose hydrous impalpable] as the molecule, how does the bulk density read?
Answer: 0.56 g/mL

Question: And the tapped bulk density?
Answer: about 0.64 g/ml

Question: Which bulk density does the source give for “Codeine Sulfate [Codeine Sulfate USP Medium Crystals Fine]” here?
Answer: about 0.6 g/ml

Question: With `CC(=O)Nc1ccc(O)cc1` [Acetaminophen] as the molecule, how does the bulk density read?
Answer: about 0.42 g/ml
